Reference: patent publication US10633350B2, “Diphenyl derivatives and uses thereof” (NOVARTIS AG, priority 2017, dated 2020)

How the values were obtained:
FoxO3a = FoxO3a inhibition assay (GFP-FoxO3a nuclear to cytoplasmic translocation) in U2OS GFP-FoxO3a H212R reporter cells; assay type: cell-based; settings: Homo sapiens, 0.5 h, serum starved overnight, 30 minutes compound treatment, ratio of nuclear to cytosolic GFP intensity, AC50 = concentration that results in 50% activation or inhibition, read-out: FoxO AC50
Method in brief: (§1)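 Serum-starved (overnight) cells treated with compounds at various doses for 30 min, then fixed in 4% paraformaldehyde and stained overnight at 4 °C for pAkt S473 with Hoechst nuclear counterstain; high-content imaging. FoxO3a readout: nuclear/cytosolic GFP ratio (%); Akt readout: total cellular pAkt intensity (%); DMSO = 0% activity.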

Akt = Akt activation assay (Phospho-AKT (Ser473) antibody staining) in U2OS GFP-FoxO3a H212R reporter cells; assay type: cell-based; settings: Homo sapiens, 0.5 h, serum starved overnight, 30 minutes compound treatment, total cellular intensity of Phospho-Akt (Ser473) antibody staining, AC50 = concentration that results in 50% activation or inhibition
Method in brief: as §1

Structure (SMILES): Cc1cc(C(N)=O)nn1-c1ccc(Cc2ccc(-c3cncc(CN(C)C)c3)cc2)cc1 [Example 5-6, 1-(4-(4-(5-((dimethylamino)methyl)pyridin-3-yl)benzyl)phenyl)-5-methyl-1H-pyrazole-3-carboxamide]
- AC50 (FoxO3a): 312 nM
- AC50 (Akt): 1040 nM

Structure (SMILES): Cc1nc(C(N)=O)nn1-c1ccc(Cc2ccc(-c3ccc(C(C)(C)O)nc3)cc2)cc1 [Example 46, 1-(4-(4-(6-(2-hydroxypropan-2-yl)pyridin-3-yl)benzyl)phenyl)-5-methyl-1H-1,2,4-triazole-3-carboxamide]
- AC50 (FoxO3a): 234 nM
- AC50 (Akt): 1160 nM

Structure (SMILES): Cc1cc(C(N)=O)nn1-c1ccc(Cc2ccc(-c3ccc(CNC4COC4)cc3)cc2)cc1 [Example 16-4]
- AC50 (FoxO3a): 41 nM
- AC50 (Akt): 120 nM

Structure (SMILES): Cc1nc(C(N)=O)nn1-c1ccc(Cc2ccc(-c3ccc(CN4CCC[C@H]4CO)cc3)cc2)cc1 [Example 39-38]
- AC50 (FoxO3a): 48 nM
- AC50 (Akt): 119 nM

Structure (SMILES): Cc1nc(C(N)=O)nn1-c1ccc(Cc2ccc(-c3ccc(CN4CCC(F)(F)C4)cc3)cc2)cc1 [Example 38-2]
- AC50 (FoxO3a): 48 nM
- AC50 (Akt): 230 nM

Structure (SMILES): Cc1cc(C(N)=O)nn1-c1ccc(C(C)(C)c2ccc(-c3ccnc(N)c3)cc2)cc1 [Example 6-5, 1-(4-(2-(4-(2-aminopyridin-4-yl)phenyl)propan-2-yl)phenyl)-5-methyl-1H-pyrazole-3-carboxamide]
- AC50 (FoxO3a): 134 nM
- AC50 (Akt): 415 nM

Structure (SMILES): Cc1cc(C(N)=O)nn1-c1ccc(C(C)(C)c2ccc(-c3ccc(C4(CN)COC4)cc3)cc2)cc1 [Example 11, 1-(4-(2-(4′-(3-(aminomethyl)oxetan-3-yl)-[1,1′-biphenyl]-4-yl)propan-2-yl)phenyl)-5-methyl-1H-pyrazole-3-carboxamide]
- AC50 (FoxO3a): 607 nM
- AC50 (Akt): 1190 nM

Structure (SMILES): Cc1nc(C(N)=O)nn1-c1ccc(Cc2ccc(-c3ccc(S(=O)(=O)NCC(C)(C)O)cn3)cc2)cc1 [Example 52, 1-(4-(4-(5-(N-(2-hydroxy-2-methylpropyl)sulfamoyl)pyridin-2-yl)benzyl)phenyl)-5-methyl-1H-1,2,4-triazole-3-carboxamide]
- AC50 (FoxO3a): 106 nM
- AC50 (Akt): 749 nM

Structure (SMILES): Cc1nc(C(N)=O)nn1-c1ccc(C(C)(C)c2ccc(-c3ccsc3)cc2)cc1 [Example 13-16]
- AC50 (FoxO3a): 377 nM
- AC50 (Akt): 926 nM

Structure (SMILES): Cc1cc(C(N)=O)nn1-c1ccc(Cc2ccc(C3=CCCN(C)CC3)cc2)cc1 [Example 5-7, 5-methyl-1-(4-(4-(1-methyl-2,3,6,7-tetrahydro-1H-azepin-4-yl)benzyl)phenyl)-1H-pyrazole-3-carboxamide]
- AC50 (FoxO3a): 412 nM
- AC50 (Akt): 1370 nM

Structure (SMILES): Cc1nc(C(N)=O)nn1-c1ccc(Cc2ccc(-c3ccc(CN4CCCC4)cc3)cc2)cc1 [Example 15-4]
- AC50 (FoxO3a): 33 nM
- AC50 (Akt): 99 nM

Structure (SMILES): Cc1cc(C(N)=O)nn1-c1ccc(Cc2ccc(-c3ccc(CN(C)C)nc3)cc2)cc1 [Example 5-3, 1-(4-(4-(6-((dimethylamino)methyl)pyridin-3-yl)benzyl)phenyl)-5-methyl-1H-pyrazole-3-carboxamide]
- AC50 (FoxO3a): 136 nM
- AC50 (Akt): 425 nM

Structure (SMILES): Cc1nc(C(N)=O)nn1-c1ccc(Cc2ccc(-c3cc(C(C)(C)O)ccn3)cc2)cc1 [Example 53, 1-(4-(4-(4-(2-hydroxypropan-2-yl)pyridin-2-yl)benzyl)phenyl)-5-methyl-1H-1,2,4-triazole-3-carboxamide]
- AC50 (FoxO3a): 2420 nM
- AC50 (Akt): 8230 nM

Structure (SMILES): Cc1cc(C(N)=O)nn1-c1ccc(Cc2ccc(-c3ccc(CN4CCN(CCO)CC4)nc3)cc2)cc1 [Example 32, 1-(4-(4-(6-((4-(2-hydroxyethyl)piperazin-1-yl)methyl)pyridin-3-yl)benzyl)phenyl)-5-methyl-1H-pyrazole-3-carboxamide]
- AC50 (FoxO3a): 315 nM
- AC50 (Akt): 647 nM

Structure (SMILES): Cc1cc(C(N)=O)nn1-c1ccc(Cc2ccc(-c3ccc4c(c3)CCN(C)C4)cc2)cc1 [Example 3-3, 5-methyl-1-(4-(4-(2-methyl-1,2,3,4-tetrahydroisoquinolin-6-yl)benzyl)phenyl)-1H-pyrazole-3-carboxamide]
- AC50 (FoxO3a): 40 nM
- AC50 (Akt): 109 nM
